# Data reported in PubChem BioAssay AID248 (DTP/NCI, 2004).
# Inconclusive results and toxic doses are left out.
# Tested on: L1210 leukemia ip in BDF1 mice, survival T/C
# Assay: NCI In Vivo Anticancer Drug Screen. Data for tumor model L1210 Leukemia (intraperitoneal) in B6D2F1 (BDF1) mice
# Details: endpoint: mean survival time, higher = longer survival
# Method in brief: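 Transplanted-tumor mice were given test agent; controls received vehicle only. Survival readings from the two groups were divided (treated over control).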
# [1] = dose: 100.0 mg/kg/injection, schedule: Q01DX005 (ip), vehicle: saline
# [2] = dose: 200.0 mg/kg/injection, schedule: Q01DX005 (ip), vehicle: saline
# [3] = dose: 50.0 mg/kg/injection, schedule: Q01DX009 (ip), vehicle: saline with Tween-80
# [4] = dose: 100.0 mg/kg/injection, schedule: Q01DX009 (ip), vehicle: saline with Tween-80
# [5] = dose: 100.0 mg/kg/injection, schedule: Q01DX009 (ip), vehicle: saline
# [6] = dose: 200.0 mg/kg/injection, schedule: Q01DX009 (ip), vehicle: saline
# [7] = dose: 400.0 mg/kg/injection, schedule: Q01DX009 (ip), vehicle: saline
# [8] = dose: 100.0 mg/kg/injection, schedule: Q04DX003 (ip), vehicle: saline
# [9] = dose: 200.0 mg/kg/injection, schedule: Q04DX003 (ip), vehicle: saline
# [10] = dose: 400.0 mg/kg/injection, schedule: Q04DX003 (ip), vehicle: saline
# [11] = dose: 12.5 mg/kg/injection, schedule: Q01DX009 (ip), vehicle: saline with Tween-80
# [12] = dose: 25.0 mg/kg/injection, schedule: Q01DX009 (ip), vehicle: saline with Tween-80
# [13] = dose: 50.0 mg/kg/injection, schedule: Q01DX009 (ip), vehicle: Klucel (hydroxypropylcellulose) (HPC)
# [14] = dose: 100.0 mg/kg/injection, schedule: Q01DX009 (ip), vehicle: Klucel (hydroxypropylcellulose) (HPC)
# [15] = dose: 100.0 mg/kg/injection, schedule: Q04DX003 (ip), vehicle: Klucel (hydroxypropylcellulose) (HPC)
# [16] = dose: 200.0 mg/kg/injection, schedule: Q04DX003 (ip), vehicle: Klucel (hydroxypropylcellulose) (HPC)
# [17] = dose: 400.0 mg/kg/injection, schedule: Q04DX003 (ip), vehicle: Klucel (hydroxypropylcellulose) (HPC)
# [18] = dose: 100.0 mg/kg/injection, schedule: Q01DX001 (ip), vehicle: saline
# [19] = dose: 200.0 mg/kg/injection, schedule: Q01DX001 (ip), vehicle: saline
structure (smiles),measurement,setting,value
CC1(C)OCC2SC(n3cnc4c(N)ncnc43)C(OS(C)(=O)=O)C2O1 (stereo not drawn),T/C,[1],97 % of control
same,T/C,[2],90 % of control
CC1(C)C=CS1(=O)=O,T/C,[3],98 % of control
same,T/C,[4],102 % of control
same,T/C,"dose: 200.0 mg/kg/injection, schedule: Q01DX009 (ip), vehicle: saline with Tween-80",95 % of control
O=C1/C(=C\c2cccc3ccccc23)COC/C1=C/c1cccc2ccccc12,T/C,[5],93 % of control
same,T/C,[6],97 % of control
same,T/C,[7],98 % of control
O=C1N=C(c2ccccc2)C(c2ccccc2)=N1,T/C,[8],96 % of control
same,T/C,[9],90 % of control
same,T/C,[10],96 % of control
Cc1cc(OC(=O)Nc2ccc(Cl)cc2Cl)c(C)cc1Cl,T/C,[11],95 % of control
same,T/C,[12],91 % of control
same,T/C,[3],91 % of control
same,T/C,[4],98 % of control
NC(=S)N/N=C/c1cc(-c2cccc(N)c2)ccn1,T/C,"dose: 6.25 mg/kg/injection, schedule: Q01DX009 (ip), vehicle: saline with Tween-80",112 % of control
same,T/C,[11],114 % of control
same,T/C,[12],114 % of control
same,T/C,[3],111 % of control
same,T/C,[4],114 % of control
CN=C(NCc1ccccc1)c1ccc(NC(=O)c2ccc(C(=O)Nc3ccc(C(=NC)NCc4ccccc4)cc3)c(Cl)c2)cc1,T/C,"dose: 2.0 mg/kg/injection, schedule: Q01DX Z (ip), vehicle: carboxymethylcellulose (CMC)",92 % of control
same,T/C,"dose: 4.0 mg/kg/injection, schedule: Q01DX Z (ip), vehicle: carboxymethylcellulose (CMC)",105 % of control
same,T/C,"dose: 8.0 mg/kg/injection, schedule: Q01DX Z (ip), vehicle: carboxymethylcellulose (CMC)",105 % of control
CCN(CC)CCCNC(=S)NC(C)(C)CC(C)=O,T/C,[13],89 % of control
same,T/C,[14],105 % of control
same,T/C,[8],97 % of control
same,T/C,[9],101 % of control
same,T/C,[10],100 % of control
CC(C)=CCCC(O)C1CCC2C3CCC4CCCCC4(C)C3CCC12C (stereo not drawn),T/C,"dose: 100.0 mg/kg/injection, schedule: Q04DX002 (ip), vehicle: DMSO",96 % of control
same,T/C,"dose: 200.0 mg/kg/injection, schedule: Q04DX002 (ip), vehicle: DMSO",96 % of control
same,T/C,"dose: 400.0 mg/kg/injection, schedule: Q04DX002 (ip), vehicle: DMSO",92 % of control
C=CCOc1cccc(OCC=C)c1C,T/C,"dose: 100.0 mg/kg/injection, schedule: Q04DX003 (ip), vehicle: saline with Tween-80",100 % of control
same,T/C,"dose: 200.0 mg/kg/injection, schedule: Q04DX003 (ip), vehicle: saline with Tween-80",98 % of control
same,T/C,"dose: 400.0 mg/kg/injection, schedule: Q04DX003 (ip), vehicle: saline with Tween-80",98 % of control
COc1cccc(OC)c1OC(=O)Nc1ccccc1F,T/C,[14],105 % of control
same,T/C,"dose: 200.0 mg/kg/injection, schedule: Q01DX009 (ip), vehicle: Klucel (hydroxypropylcellulose) (HPC)",106 % of control
same,T/C,"dose: 400.0 mg/kg/injection, schedule: Q01DX009 (ip), vehicle: Klucel (hydroxypropylcellulose) (HPC)",106 % of control
O=C1N(Cl)C(=O)C(c2ccccc2)(c2ccc(F)cc2)N1Cl (stereo not drawn),T/C,[13],94 % of control
same,T/C,[14],94 % of control
same,T/C,[15],96 % of control
same,T/C,[16],94 % of control
Nc1cccc2c1nc(NCCO)c1ccccc12,T/C,[15],114 % of control
same,T/C,[16],103 % of control
same,T/C,[17],103 % of control
Cc1ccc2nc(NC(=O)N(CCCl)N=O)sc2c1,T/C,"dose: 53.0 mg/kg/injection, schedule: Q01DX009 (ip), vehicle: carboxymethylcellulose (CMC)",103 % of control
same,T/C,"dose: 80.0 mg/kg/injection, schedule: Q01DX009 (ip), vehicle: carboxymethylcellulose (CMC)",113 % of control
same,T/C,"dose: 118.0 mg/kg/injection, schedule: Q01DX001 (ip), vehicle: other",150 % of control
same,T/C,"dose: 118.0 mg/kg/injection, schedule: Q01DX006 (ip), vehicle: other",193 % of control
same,T/C,"dose: 120.0 mg/kg/injection, schedule: Q01DX009 (ip), vehicle: carboxymethylcellulose (CMC)",114 % of control
same,T/C,"dose: 180.0 mg/kg/injection, schedule: Q01DX001 (ip), vehicle: carboxymethylcellulose (CMC)",157 % of control
same,T/C,"dose: 200.0 mg/kg/injection, schedule: Q01DX001 (ip), vehicle: carboxymethylcellulose (CMC)",158 % of control
same,T/C,"dose: 266.0 mg/kg/injection, schedule: Q01DX006 (ip), vehicle: other",98 % of control
same,T/C,"dose: 266.0 mg/kg/injection, schedule: Q01DX009 (ip), vehicle: carboxymethylcellulose (CMC)",161 % of control
same,T/C,"dose: 400.0 mg/kg/injection, schedule: Q01DX001 (ip), vehicle: carboxymethylcellulose (CMC)",170 % of control
same,T/C,"dose: 400.0 mg/kg/injection, schedule: Q01DX006 (ip), vehicle: other",90 % of control
O=C(O)/C=C/c1cnc[nH]1,T/C,"dose: 100.0 mg/kg/injection, schedule: Q04DX002 (ip), vehicle: saline",93 % of control
same,T/C,"dose: 200.0 mg/kg/injection, schedule: Q04DX002 (ip), vehicle: saline",104 % of control
same,T/C,"dose: 400.0 mg/kg/injection, schedule: Q04DX002 (ip), vehicle: saline",108 % of control
COc1ccc(C=NCCc2ccc(OC)c(OC)c2)cc1OC,T/C,[5],89 % of control
same,T/C,[8],102 % of control
same,T/C,[6],98 % of control
same,T/C,[9],97 % of control
same,T/C,[7],97 % of control
same,T/C,[10],105 % of control
CC1(C)N=C(N)N=C(N)N1c1cccc(OCCOc2ccc([N+](=O)[O-])cc2)c1,T/C,[18],101 % of control
same,T/C,[19],95 % of control
COC(=O)c1ccc(-c2c3ccc(=O)cc-3oc3cc(O)ccc23)c(C(=O)OC)c1,T/C,"dose: 50.0 mg/kg/injection, schedule: Q04DX003 (ip), vehicle: gum acacia",102 % of control
same,T/C,"dose: 100.0 mg/kg/injection, schedule: Q04DX003 (ip), vehicle: gum acacia",98 % of control
same,T/C,"dose: 200.0 mg/kg/injection, schedule: Q04DX003 (ip), vehicle: gum acacia",102 % of control
same,T/C,"dose: 400.0 mg/kg/injection, schedule: Q04DX003 (ip), vehicle: gum acacia",95 % of control
NC(=O)CC1=NCCc2ccccc21,T/C,[18],108 % of control
same,T/C,[19],108 % of control
CCOC(=O)NC(CCl)NC(=O)OCC,T/C,[18],95 % of control
same,T/C,[19],101 % of control
same,T/C,"dose: 400.0 mg/kg/injection, schedule: Q01DX001 (ip), vehicle: saline",103 % of control
COCC(O)CC#N (stereo not drawn),T/C,[5],117 % of control
same,T/C,[6],113 % of control
same,T/C,[7],111 % of control
O=C(O)c1cc(N=Nc2ccccc2)ccc1O,T/C,[3],96 % of control
same,T/C,"dose: 50.0 mg/kg/injection, schedule: Q04DX003 (ip), vehicle: other",93 % of control
same,T/C,"dose: 100.0 mg/kg/injection, schedule: Q01DX001 (ip), vehicle: other",101 % of control
same,T/C,[4],94 % of control
same,T/C,"dose: 100.0 mg/kg/injection, schedule: Q04DX003 (ip), vehicle: other",93 % of control
same,T/C,[8],96 % of control
same,T/C,"dose: 200.0 mg/kg/injection, schedule: Q01DX001 (ip), vehicle: other",107 % of control
same,T/C,"dose: 200.0 mg/kg/injection, schedule: Q04DX003 (ip), vehicle: other",98 % of control
same,T/C,[9],87 % of control
O=c1[nH]cnc2c1nc([Se])n2C1OC(CO)C(O)C1O (stereo not drawn),T/C,[1],102 % of control
same,T/C,[2],107 % of control
COc1ccc(N2CSC(=S)N(c3ccc(OC)cc3)C2)cc1,T/C,"dose: 25.0 mg/kg/injection, schedule: Q01DX009 (ip), vehicle: saline",96 % of control
same,T/C,"dose: 50.0 mg/kg/injection, schedule: Q01DX009 (ip), vehicle: saline",93 % of control
same,T/C,[5],95 % of control
same,T/C,[10],91 % of control
CCOc1ccc(OCC)c(NC(=O)Nc2ccccc2Cl)c1,T/C,"dose: 200.0 mg/kg/injection, schedule: Q04DX002 (ip), vehicle: saline with Tween-80",90 % of control
same,T/C,"dose: 400.0 mg/kg/injection, schedule: Q04DX002 (ip), vehicle: saline with Tween-80",87 % of control
CCOC(=O)c1ccccc1NC(=O)Nc1cc([N+](=O)[O-])ccc1F,T/C,[15],88 % of control
same,T/C,[16],92 % of control
same,T/C,[17],86 % of control
